Test results as given in patent US11925672B2, “Peptide having antioxidant activity and composition containing same” (SEMPIO FOODS COMPANY, priority 2018, dated 2024).
“Also recorded” adds a separate entry of the source. Numbered stars: 1 amine (or outer) side, 2 acyl side, 3 side chain; on linkers, the order of the positions; unused ones are H or OH. Square brackets hold non-standard residues; d marks the D form. Ends that are not written are not given here. γGlu = O=C(O)[C@H](CCC(=O)[*:2])N[*:1]; Orn = NCCC[C@H](N)C(=O)O; Abu = CC[C@H](N)C(=O)O

Legend:
SOD2 mRNA = SOD2 mRNA expression level by real-time PCR in Tert-BHP-treated HEK293 cells; assay type: cell-based; settings: Tert-BHP 300 μM, peptide 500 μM, 18 hours; for effect on SOD2 mRNA expression: FIG. 6; for SOD2 mRNA expression compared to positive control GSH: vs GSH
Experimental: The expression of SOD2 mRNA as another antioxidant factor was determined. The cell line culture, RNA extraction, cDNA synthesis and PCR experiments were performed in the same manner as in Experimental Example 5 above. A detailed description thereof is given below.
(§1) An HEK293 cell (kidney cell) line was seeded at a density of 6.6×10^5/well in DMEM (Dulbecco's Modified Eagle's Medium) medium on a 6-well plate and cultured at 37° C. and 5% CO2 for 24 hours. The next day, the medium was exchanged with serum and amino-acid-free media, and then the cells were further cultured for 20 hours or longer. The cells were treated with Tert-BHP (300 μM) and 500 μM 100 types of peptides, and then cultured for 18 hours.
RNA was extracted from the cells treated with 100 types of peptides in (1) using TRIzol (Thermo Fisher Scientific). A GoScript™ Reverse Transcription System (Promega, Wisconsin, USA) was used to synthesize cDNA from the RNA. The cDNA was synthesized by performing annealing with 1 μg RNA, 0.5 μg of an oligo dt primer, 0.5 μg of a random primer, and RT-PCR pre-mixture at 25° C. for 5 minutes, extension at 42° C. for 60 minutes, and inactivation at 70° C. for 15 minutes.
(§2) PCR was performed using Maxime™ PCR PreMix (i-StarTaq) (Intron Biotechnology, Korea). Real-time PCR was performed using SsoAdvanced™ Universal SYBR® Green Supermix (Bio-Rad, USA). 100 ng of cDNA, 2 μM (pmol/μl) primers, 10 μl of 2X SsoAdvanced™ Universal SYBR® Green Supermix and DW were added to the PCR plate well. Then, the temperature was cyclically adjusted to 95° C. for 3 minutes, 95° C. for 10 seconds and 58° C. for 40 seconds for a total of 40 cycles. A PCR reaction was performed using the CFX96 Touch™ Real-Time PCR Detection System (Bio-Rad, California, USA), and fluorescence intensity was measured at the end of each cycle.

Nrf2 mRNA = Nrf2 mRNA expression level by real-time PCR in Tert-BHP-treated HEK293 cells; assay type: cell-based; settings: Tert-BHP 300 μM, peptide 500 μM, 18 hours; for effect on expression of Nrf2 mRNA: FIGS. 5A to 5C; for Nrf2 mRNA expression compared to positive control GSH: vs GSH
Experimental: In the present invention, the antioxidant activity was compared between the 100 types of peptides, and the change in Nrf2 mRNA expression was measured through PCR in order to select the final peptide.
as §1, with “C. under” for “C. and”
RNA was extracted from the cells treated with 100 types of peptides in (1) using TRIzol (Thermo Fisher Scientific). A GoScript™ Reverse Transcription System (Promega, Wisconsin, USA) was used to synthesize cDNA from the RNA. The cDNA was synthesized by performing annealing using 1 μg of RNA, 0.5 μg of an oligo dt primer, 0.5 μg of a random primer and RT-PCR pre-mixture at 25° C. for 5 minutes, extension at 42° C. for 60 minutes, and inactivation at 70° C. for 15 minutes.
as §2, with “using a” for “using the”

Substance	effect on SOD2 mRNA expression (SOD2 mRNA)	effect on expression of Nrf2 mRNA (Nrf2 mRNA)	SOD2 mRNA expression compared to positive control GSH (SOD2 mRNA)	Nrf2 mRNA expression compared to positive control GSH (Nrf2 mRNA)
γ-GLU-VAL-VAL ([γGlu]-Val-Val; also: gamma-glutamyl isopeptide bond (Glu side chain to Val))	increased SOD2 mRNA expression	improve the expression of Nrf2 mRNA	–	–
γ-GLU-VAL-ASP ([γGlu]-Val-Asp; also: gamma-glutamyl isopeptide bond (Glu side chain to Val))	increased SOD2 mRNA expression	improve the expression of Nrf2 mRNA	remarkably excellent; also recorded: statistically significant activity	remarkably excellent effect; also recorded: statistically significant activity
γ-GLU-GLU-GLU ([γGlu]-Glu-Glu)	–	improve the expression of Nrf2 mRNA	–	–
γ-GLU-VAL-PHE ([γGlu]-Val-Phe; also: gamma-glutamyl isopeptide bond (Glu side chain to Val))	increased SOD2 mRNA expression	improve the expression of Nrf2 mRNA	remarkably excellent; also recorded: statistically significant activity	remarkably excellent effect; also recorded: statistically significant activity
γ-GLU-VAL-LYS ([γGlu]-Val-Lys; also: gamma-glutamyl isopeptide bond (Glu side chain to Val))	increased SOD2 mRNA expression	improve the expression of Nrf2 mRNA	–	–
γ-GLU-VAL-MET ([γGlu]-Val-Met; also: gamma-glutamyl isopeptide bond (Glu side chain to Val))	increased SOD2 mRNA expression	improve the expression of Nrf2 mRNA	remarkably excellent; also recorded: statistically significant activity	remarkably excellent effect; also recorded: statistically significant activity
γ-GLU-VAL-GLU ([γGlu]-Val-Glu; also: gamma-glutamyl isopeptide bond (Glu side chain to Val))	increased SOD2 mRNA expression	improve the expression of Nrf2 mRNA	remarkably excellent; also recorded: statistically significant activity	remarkably excellent effect; also recorded: statistically significant activity
γ-GLU-SER-GLY ([γGlu]-Ser-Gly; also: gamma-glutamyl isopeptide bond (Glu side chain to Ser))	–	improve the expression of Nrf2 mRNA	remarkably excellent; also recorded: statistically significant activity	statistically significant activity
β-GLU-HIS	–	no effect	–	–
γ-GLU-VAL-HIS ([γGlu]-Val-His; also: gamma-glutamyl isopeptide bond (Glu side chain to Val))	increased SOD2 mRNA expression	improve the expression of Nrf2 mRNA	remarkably excellent	–
γ-GLU-LEU-GLY ([γGlu]-Leu-Gly)	–	improve the expression of Nrf2 mRNA	–	–
γ-GLU-VAL-ORN ([γGlu]-Val-[Orn]; also: γ-peptide bond from Glu side chain carboxyl to Val)	increased SOD2 mRNA expression	improve the expression of Nrf2 mRNA	–	–
γ-GLU-VAL-PRO ([γGlu]-Val-Pro; also: gamma-glutamyl isopeptide bond (Glu side chain to Val))	increased SOD2 mRNA expression	improve the expression of Nrf2 mRNA	–	–
γ-GLU-VAL-ASN ([γGlu]-Val-Asn; also: gamma-glutamyl isopeptide bond (Glu side chain to Val))	increased SOD2 mRNA expression	improve the expression of Nrf2 mRNA	remarkably excellent; also recorded: statistically significant activity	remarkably excellent effect; also recorded: statistically significant activity
γ-GLU-CYS(S-Me)-GLY ([γGlu]-Cys(Me)-Gly)	–	improve the expression of Nrf2 mRNA	–	–
γ-GLU-VAL-ARG ([γGlu]-Val-Arg; also: gamma-glutamyl isopeptide bond (Glu side chain to Val))	increased SOD2 mRNA expression	improve the expression of Nrf2 mRNA	remarkably excellent; also recorded: statistically significant activity	remarkably excellent effect; also recorded: statistically significant activity
γ-GLU-GLN-GLN ([γGlu]-Gln-Gln)	increased SOD2 mRNA expression	improve the expression of Nrf2 mRNA	–	–
γ-GLU-ILE-GLY ([γGlu]-Ile-Gly)	increased SOD2 mRNA expression	improve the expression of Nrf2 mRNA	remarkably excellent; also recorded: statistically significant activity	remarkably excellent effect; also recorded: statistically significant activity
γ-GLU-ORN	–	improve the expression of Nrf2 mRNA	–	comparable or superior
γ-GLU-VAL-ALA ([γGlu]-Val-Ala; also: gamma-glutamyl isopeptide bond (Glu side chain to Val))	increased SOD2 mRNA expression	improve the expression of Nrf2 mRNA	–	–
γ-GLU-PRO-GLY ([γGlu]-Pro-Gly)	increased SOD2 mRNA expression	improve the expression of Nrf2 mRNA	remarkably excellent; also recorded: statistically significant activity	remarkably excellent effect; also recorded: statistically significant activity
γ-GLU-VAL-GLY ([γGlu]-Val-Gly; also: gamma-glutamyl isopeptide bond (Glu side chain to Val))	increased SOD2 mRNA expression	improve the expression of Nrf2 mRNA	remarkably excellent	–
γ-GLU-Abu-GLY ([γGlu]-[Abu]-Gly; also: γ-peptide bond from Glu side chain carboxyl to Abu)	increased SOD2 mRNA expression	improve the expression of Nrf2 mRNA	remarkably excellent	–
γ-GLU-ALA-GLY (Glu-Ala-Gly; not fully specified (residue 1); printed as γ-GLU-ALA-GLY)	–	improve the expression of Nrf2 mRNA	–	–
